Tests used:
[1] = Behavior in male mice (stimulant effects); format: in vivo; conditions: intraperitoneal
Procedure: (§1) The comparative tests which were undertaken with the levorotatory derivative according to the invention (Ex. 1; Code no.: CRL 40 982), the dextrorotatory derivative (CP1; Code no.: CRL 40 983) and the corresponding racemate (CP2; Code no.: CRL 40 476) have been summarized below. Unless indicated otherwise, the 3 products studied in these tests were administered intraperitoneally as a suspension in an aqueous solution of gum arabic, in a volume of 20 ml/kg to male mice and in a volume of 5 ml/kg to male rats.

[2] = Pharmacokinetic study on dogs (plasma AUC, metabolism to CRL 40 467); format: in vivo; conditions: for AUCo^+9h of CRL 40 476, comparison between products administered: dogs, oral, 30 mg/kg, plasma, 0-9 h, stereoisomers not distinguished; for conversion to inactive metabolite CRL 40 467: in the organism
From the text: to distinguish CRL 40 982 from the racemic and dextrorotatory compounds, a kinetic study of the metabolism was undertaken on dogs (group of four animals). In a randomized crossover procedure, each animal received the following at the rate of one oral administration per week: 2 administrations of CRL 40 476 (for assessment of the variations within individuals), 1 administration of CRL 40 982 and 1 administration of CRL 40 983. Following each of these administrations, the kinetics of the CRL 40 476 and CRL 40 467 present in the plasma were determined (without looking to see whether these two products were in the racemic, levorotatory and/or dextrorotatory form, because of the difficulties associated with determining the optical rotation of each of the optical isomers in a biological medium).
The dose administered for each of the test substances CRL 40 476, CRL 40 982 and CRL 40 983 was 30 mg/kg.
After administration of CRL 40 476, the said CRL 40 476 and its metabolite, CRL 40 467, are found in the plasma.
After the administration of CRL 40 982, the following are found in the plasma: the said CRL 40 982, which will be characterized and determined as being CRL 40 476 by way of convenience, in view of what has been said above, and a metabolite which will be characterized and determined as being CRL 40 467.
Likewise, after administration of CRL 40 983, the 2 corresponding products in the plasma will be characterized and determined as being CRL 40 476 and CRL 40 467.
The curves of the plasma concentrations of the said CRL 40 476 and CRL 40 467 as a function of time are plotted from time […] to time T=+9 h after administration of the CRL 40 476, CRL 40 982 and CRL 40 983. The areas under the curves (AUCo^+9h) are then calculated.

[3] = Motor activity in mice (actimeter); format: in vivo, male mice; conditions: for motor activity: 128 mg/kg and to a lesser extent 64 mg/kg, intraperitoneal four hours before 30 min recording; for intensity of stimulant effect / hyperactivity relative to the other products / level and statistical significance of hyperactivity relative to CRL 40 476: intraperitoneal four hours before the test; for level and statistical significance of hyperactivity relative to CRL 40 476: especially at 128 mg/kg
Procedure: as §1
The mice (6 per dose, 18 control animals) receive CRL 40 476, CRL 40 982 or CRL 40 983 four hours before being placed in an actimeter, where their motility is recorded for 30 minutes.

[4] = Behavior in rats; format: in vivo, male rats; conditions: intraperitoneal; for mydriatic action in male rats: all the doses used; for behavior, reactivities and variations in the rectal temperature and pupil diameter: male rats, 64, 16, 4 and 1 mg/kg
Procedure: as §1
at a dose of 128 mg/kg, CRL 40 476 causes excitation with an increase in the fear ration for 2 h, exophthalmos for 1 h and mydriasis for 1 for 2 h;
at a dose of 32 mg/kg, CRL 40 476 causes excitation (transient, lasting 0.5 h) with an increase in the fear reaction for 1 h, exophthalmos for 0.5-1 h and mydriasis for 1-2 h;
at a dose of 8 mg/kg, CRL 40 476 causes exophthalmos for 0.5-1 h and mydriasis for 0.5 h;
at a dose of 2 mg/kg, CRL 40 476 induces transient mydriasis appearing 1 h after administration, whereas

[5] = Toxicity in male mice, intraperitoneal administration; format: in vivo
Procedure: as §1

[6] = Activity and lethality of the metabolite CRL 40 467 in male mice; format: in vivo
[7] = Immunostimulant effect in vitro
[8] = Human clinical trials; format: in vivo
[9] = Solubility of CRL 40 982; conditions: alcohols, acetone, water, ether
[10] = male mice, intraperitoneal, 1024, 512, 256, 128 and 64 mg/kg
[11] = human, once or twice a day, tablets or gelatin capsules of 50 to 100 mg

Compound | stimulant effects in male mice [1] | AUCo^+9h of CRL 40 476, comparison between products administered [2] | conversion to inactive metabolite CRL 40 467 [2] | motor activity [3] | intensity of stimulant effect / hyperactivity relative to the other products [3] | stimulant effects in male rats ([4]; male rats) | mydriatic action in male rats ([4]; male rats) | LDO (maximum non-lethal dose) [5] | level and statistical significance of hyperactivity relative to CRL 40 476 [3] | behavior, reactivities and variations in the rectal temperature and pupil diameter [4] | also measured
NC(=O)C[S+]([O-])C(c1ccccc1)c1ccccc1 (racemic) [CRL 40 476, (±)-benzhydrylsulfinylacetamide] | have stimulant effects | not statistically different | partially converted to (±)-benzhydrylsulfinylacetic acid | increase in the motor activity | less than that obtained with either CRL 40 982 or CRL 40 983 | is a stimulant | has a mydriatic action at all the doses used | greater than or equal to 512 mg/kg | – | – | transient mydriasis, time of appearance after administration ([4]; male rats, 2 mg/kg): 1 h; exophthalmos, duration ([4]; male rats, 8 mg/kg): 0.5 to 1 h; mydriasis, duration ([4]; male rats, 8 mg/kg): 0.5 h; excitation (transient), duration ([4]; male rats, 32 mg/kg): 0.5 h; exophthalmos, duration ([4]; male rats, 32 mg/kg): 0.5 to 1 h; increase in the fear reaction, duration ([4]; male rats, 32 mg/kg): 1 h; mydriasis, duration ([4]; male rats, 32 mg/kg): 1 to 2 h; excitation with increase in the fear reaction, duration ([4]; male rats, 128 mg/kg): 2 h; exophthalmos, duration ([4]; male rats, 128 mg/kg): 1 h
O=C(O)C[S+]([O-])C(c1ccccc1)c1ccccc1 (racemic) [CRL 40 467, (±)-benzhydrylsulfinylacetic acid] | – | – | – | – | – | – | – | – | – | – | activity of metabolite ([6]; male mice, intraperitoneal, 64-1024 mg/kg): inactive; death of animals treated [6, 10]: does not cause the death of any of the animals treated; duration of brief sedation [6, 10]: 50 to 60 min; psychotropic activity ([6]; neuropsychopharmacological study): did not reveal any psychotropic activity
NC(=O)C[S+]([O-])C(c1ccccc1)c1ccccc1 (single isomer, unassigned; (+)) [CRL 40 983, (+)-benzhydrylsulfinylacetamide] | have stimulant effects | not statistically different | – | increase in the motor activity | – | do not have stimulant effects | devoid of this mydriatic action | greater than or equal to 512 mg/kg | greater than those due to CRL 40 476 | substantially comparable to those of the control group | conversion to inactive metabolite CRL 40 467 ([2]; listed as dextrorotatory derivative): a very high proportion
NC(=O)C[S+]([O-])C(c1ccccc1)c1ccccc1 (single isomer, unassigned; (-)) [CRL 40 982, (-)-benzhydrylsulfinylacetamide] | have stimulant effects | approximately twice | only a small proportion of this product is converted to inactive CRL 40 467 | increase in the motor activity | stimulant effect equal in intensity to that observed with CRL 40 983 | do not have stimulant effects | devoid of this mydriatic action | – | greater than those due to CRL 40 476 | substantially comparable to those of the control group | bioavailability ([2]; relative to racemic CRL 40 476 and dextrorotatory CRL 40 983): better bioavailability than the racemic compound CRL 40 476 and the dextrorotatory compound CRL 40 983; immunostimulant effect [7]: immunostimulant effect was also observed; LD30 [5]: about 512 mg/kg; relative toxicity [5]: more toxic than CRL 40 983 (CP1) and CRL 40 476 (CP2); long-term clinical action ([8]; human, long term): arousing substance useful for hypersomnia; improvement in Alzheimer's disease [8, 11]: improvement of the symptoms of dementia, memory disorders, aphasia and ideomotor apraxia; stimulant neuropsychopharmacological profile [8, 11]: different stimulant neuropsychopharmacological profile from that of the amphetamines and tricyclic antidepressants; activity towards symptoms of dementia and loss of memory ([8]; human, short and long term, especially in the elderly): particularly active towards the symptoms of dementia and loss of memory; short-term clinical action ([8]; human, short term): purely hypnogenic, antiarousing substance; half-life ([8]; in vivo, human clinical trials, read-out: elimination half-life (converted)): ~10 h; solubility [9]: soluble in alcohols and acetone and insoluble in water and ether
